{
  "source": "patent US20250179589A1",
  "about": "“SYNTHETIC LETHALITY AND THE TREATMENT OF CANCER” (PACYLEX PHARMACEUTICALS INC., priority 2012, published 2025)",
  "key": {"[1]": {"system": "NMT2 levels in BL cells (Ramos, BL2)", "test": "Western blot of protein levels after MG-132 treatment", "format": "cell-based, human", "conditions": "10 μM, 5 h", "description": "(§1) IM9, KMH2, BL2 and Ramos cells were plated (3×10^6 cells per well in a 6-well dish) and treated with 10 μM MG-132 for 5 hours. Equal amount of DMSO was added to the control samples. Cells were then lysed and subjected to SDS-PAGE/Western blot analyses.\n(§2) In this example, in FIG. 26, it is shown that proteosomal degradation is not the cause of NMT2 depletion in BL cells. In these experiments, “Normal” immortalized B lymphocytes (IM9) and malignant B lymphoma cells [Hodgkin's lymphoma (KMH2) and BL (Ramos, BL2)] treated with 10 μM of proteosomal inhibitor (MG-132) for 5 h. Western blotting was performed on cell lysates to monitor levels of NMT1, NMT2, Mcl-1, and GAPDH.\n(§3) To investigate whether NMT2's degradation was increased as a result of a destabilizing mutation or the presence of an unknown factor that could destabilize NMT2 in cancer cells, we treated normal and malignant lymphocytes with the proteosomal degradation inhibitor MG-132 for 5 h. Cell lysates were subjected to western blotting to analyze the presence of NMT1, NMT2 and myeloid cell leukemia-1 protein (Mcl-1), which was used as a control to check the effectiveness of MG-132 since it is subject to proteosomal degradation."}, "[2]": {"system": "Mcl-1 levels in IM9, KMH2, Ramos, BL2 cells", "test": "Western blot of protein levels after MG-132 treatment", "format": "cell-based, human", "conditions": "all cell types, 10 μM, 5 h", "description": "as §1, §2, §3"}, "[3]": {"system": "NMT2 levels in BL cells (Ramos, BL2)", "test": "Western blot of protein levels after SAHA treatment", "format": "cell-based, human", "conditions": "1 μM, 24 h", "description": "(§4) IM9, BL2 and Ramos cells were plated at 3×10^6 cells per well in a 6-well dish and treated with 1 μM suberoylanilide hydroxamic acid (SAHA), which is a reversible inhibitor of class I and class II histone deacetylases (HDACs), for 24 hours. Equal amount of DMSO was added to cells as a control. Cells were lysed and subjected to SDS-PAGE/Western blot analyses.\n(§5) To test whether the reduction in mRNA NMT2 was due to chromatin silencing, we treated “normal” B cells (IM9) and malignant BL cells with suberoylanilide hydroxamic acid (SAHA) (also named vorinostat), a class I and class II histone deacetylase inhibitor, for 24 hours and monitored the levels of NMT1 and NMT2 by western blot. In particular, “Normal” B cells (IM9) and malignant BL cells (Ramos, BL2) treated with 1 μM SAHA (HDAC class I/II inhibitor) for 24 h. Cells were then lysed, subjected to SDS-PAGE and western blotting was performed with NMT1, NMT2, p21/WAF1 and GAPDH antibodies."}, "[4]": {"system": "NMT1 levels in IM9, Ramos, BL2 cells", "test": "Western blot of protein levels after SAHA treatment", "format": "cell-based, human", "conditions": "1 μM, 24 h", "description": "as §4, §5"}, "[5]": {"system": "p21/WAF1 levels in IM9, Ramos, BL2 cells", "test": "Western blot of protein levels after SAHA treatment", "format": "cell-based, human", "conditions": "all cells, 1 μM, 24 h", "description": "as §4, §5"}, "NMT1": {"target": "T1, NMT1 (Homo sapiens, UniProt P30419)", "T1 construct": "We generated His-tagged full-length (His-NMT1 and His-NMT2) and caspase truncated (His-73NMT1, His-26NMT2 and His-68NMT2) human NMT vectors; His6 (N); made in house; host or cells: E. coli Lemo21(DE3) pLysS", "T1 sequence (P30419 whole entry, the tested form may be a part)": "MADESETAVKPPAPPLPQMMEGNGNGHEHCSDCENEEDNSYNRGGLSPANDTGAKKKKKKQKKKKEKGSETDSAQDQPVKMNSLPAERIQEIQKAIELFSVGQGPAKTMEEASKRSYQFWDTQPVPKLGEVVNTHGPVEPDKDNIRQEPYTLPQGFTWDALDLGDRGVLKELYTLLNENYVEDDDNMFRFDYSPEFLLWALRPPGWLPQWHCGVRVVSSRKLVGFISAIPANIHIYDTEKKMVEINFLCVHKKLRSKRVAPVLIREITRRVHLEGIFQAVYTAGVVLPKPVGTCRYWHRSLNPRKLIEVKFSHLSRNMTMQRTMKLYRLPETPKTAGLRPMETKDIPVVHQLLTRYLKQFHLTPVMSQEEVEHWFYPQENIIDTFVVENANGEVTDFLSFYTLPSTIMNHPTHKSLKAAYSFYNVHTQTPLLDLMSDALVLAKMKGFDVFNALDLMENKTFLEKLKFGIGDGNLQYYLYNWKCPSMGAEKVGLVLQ", "test": "In vitro NMT activity (peptide myristoylation) assay", "format": "biochemical", "excerpt": "(§6) In vitro NMT activity assay. N-myristoyltransferase activity assay protocol was adapted from Raju, R. V., and Sharma, R. K. (1999) Preparation and assay of myristoyl-CoA:protein N-myristoyltransferase. Methods Mol Biol 116, 193-211. [^3H] myristoyl-CoA was freshly synthesized for each experiment, as previously described by Towler, D., and Glaser, L. (1986) Protein fatty acid acylation: enzymatic synthesis of an N-myristoylglycyl peptide. Proc Nat Acad Sci USA 83, 2812-2816. Briefly, cells were resuspended in 0.25 M sucrose buffer (50 mM NaH2PO4, pH 7.4) and subjected to 2 rounds of sonication at level 6.0 on a Branson Sonicator. Reaction mixture is composed of 10 μL of cell extract (about 20 μg of proteins) incubated in NMT activity buffer (0.26M Tris-HCl, 3.25 mM EGTA, 2.92 mM EDTA and 29.25 mM 2-mercaptoethanol, 1% Triton X-100, pH 7.4) and myristoylable or non-myristoylable decapeptide corresponding to the N-terminal sequence of truncated-Bid (0.1 mM dissolved in water). Reaction was started by the addition of 7.4 μL (≈10 pMol) of freshly synthesized [^3H] myristoyl-CoA (final mixture volume=25 μL) and incubated for 15 min at 30° C. The reaction is stopped by spotting 15 μL of the reaction mixture on a P81 phosphocellulose paper disc (Whatman, Kent, UK) and dried for 30 seconds. Discs were washed (washing buffer: 25 mM Tris buffer, pH 7.4) to remove the residual radioactivity ([^3H]-myristate and [^3H]-myristoyl-CoA) while [^3H]-myristoyl-peptide is retained on the phosphocellulose paper. Radioactivity was quantified by liquid scintillation counting and converted into pMol of myristoylated peptide (Raju, R. V., and Sharma, R. K. (1999) Preparation and assay of myristoyl-CoA:protein N-myristoyltransferase. Methods Mol Biol 116, 193-211\n(§7) NMT activity was assayed using a peptide myristoylation assay with purified recombinant NMT1 and NMT2. NMT activity was calculated from the amount of radiolabeled myristoylpeptide produced and detected on phosphocellulose paper (adapted from King et al. 1991, Anal Biochem.).\n(§8) In this example, in FIG. 10, the sensitivity of various immortalized normal LO B lymphocytes (obtained from Dr. Riabowol, U. of Calgary), malignant B lymphoma cells (Ramos and BL2), and, T cell leukemia (CEM) is shown to the NMT inhibitor TrisDBA for 24 hours (A) Residual viability of various cell lines treated with TrisDBA for 24 hours (n=9) (B) Effect of TrisDBA on N-myristoyltransferase activity in COS7 cells transiently expressing NMT1 or NMT2 incubated for 24 h with TrisDBA. In vitro the IC50 for TrisDBA is approximately 2 μM for NMT1 and 5 μM for NMT2."}, "NMT2": {"target": "T2, NMT2 (Homo sapiens, UniProt O60551)", "T2 construct": "We generated His-tagged full-length (His-NMT1 and His-NMT2) and caspase truncated (His-73NMT1, His-26NMT2 and His-68NMT2) human NMT vectors; His6 (N); made in house; host or cells: E. coli Lemo21(DE3) pLysS", "T2 sequence (O60551 whole entry, the tested form may be a part)": "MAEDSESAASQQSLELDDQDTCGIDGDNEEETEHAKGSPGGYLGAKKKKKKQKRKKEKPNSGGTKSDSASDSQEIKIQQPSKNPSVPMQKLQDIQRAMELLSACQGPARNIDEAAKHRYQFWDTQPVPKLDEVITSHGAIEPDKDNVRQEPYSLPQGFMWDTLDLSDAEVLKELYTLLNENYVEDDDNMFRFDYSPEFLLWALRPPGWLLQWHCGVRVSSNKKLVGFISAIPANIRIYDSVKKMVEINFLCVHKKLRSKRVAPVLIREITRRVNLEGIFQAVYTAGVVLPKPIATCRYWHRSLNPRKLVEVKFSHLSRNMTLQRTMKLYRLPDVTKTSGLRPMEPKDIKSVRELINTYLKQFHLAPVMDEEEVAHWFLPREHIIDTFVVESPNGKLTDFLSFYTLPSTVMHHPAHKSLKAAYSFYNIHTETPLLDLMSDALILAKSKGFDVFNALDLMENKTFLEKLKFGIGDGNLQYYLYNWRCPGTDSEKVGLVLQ", "test": "In vitro NMT activity (peptide myristoylation) assay", "format": "biochemical", "excerpt": "as §6, §7, §8"}, "[6]": {"system": "Ramos B lymphoma cells transfected with pcDNA3.1-V5-NMT2", "test": "Survival of NMT2-transfected Ramos cells, trypan blue exclusion", "format": "cell-based, human", "conditions": "TrisDBA 5 ug/ml, 24 hours", "description": "(§9) Cell viability assay. B and T cell viability was measured using the trypan blue exclusion method. Cells were grown in confluency conditions (2×10^6 cells/mL maximum) assuring the minimum basal apoptosis. […] Cell viability was quantified using the TC10™ automated cell counter (Biorad)."}, "[7]": {"system": "Ramos (Burkitt's lymphoma) cells", "test": "Trypan blue exclusion cell viability assay", "format": "cell-based, human", "conditions": "24 hours, compared with L0 and CEM cells", "description": "as §9\n(§10) The drugs were dissolved in DMSO to make 100× stock solutions for each concentration tested, so that the final volume of DMSO in each well was 1%.\n(§11) Cell viability was then quantified using the TC10™ automated cell counter (Biorad)."}, "[8]": {"system": "BL-2 (Burkitt's lymphoma) cells", "test": "Trypan blue exclusion cell viability assay", "format": "cell-based, human", "conditions": "BL-2, 24 hours, compared with L0 and CEM cells", "description": "as §9, §10, §11"}},
  "note": "Residues, ends and D or L forms follow the SMILES beside them. *: point of attachment. Cbz = O=C(OCc1ccccc1)*",
  "data": [
    {"compound": "CC(C)C[C@@H](C=O)NC(=O)[C@H](CC(C)C)NC(=O)[C@H](CC(C)C)NC(=O)OCc1ccccc1", "note": "[MG-132] (Cbz-Leu-Leu-Leu-aldehyde)", "values": [
      {"measurement": "NMT2 levels", "setting": "[1]", "value": "did not increase"},
      {"measurement": "Mcl-1 levels", "setting": "[2]", "value": "increased levels of Mcl-1"}
    ]},
    {"compound": "O=C(CCCCCCC(=O)Nc1ccccc1)NO", "note": "[SAHA, suberoylanilide hydroxamic acid]", "values": [
      {"measurement": "NMT2 levels", "setting": "[3]", "value": "increased NMT2 levels"},
      {"measurement": "NMT1 levels", "setting": "[4]", "value": "remained relatively unchanged"},
      {"measurement": "p21/WAF1 levels", "setting": "[5]", "value": "increased p21/WAF1 levels"}
    ]},
    {"compound": "tris-dibenzylideneacetone-dipalladium [TrisDBA]", "values": [
      {"measurement": "IC50", "setting": "NMT1; NMT1, in vitro", "value": "~2", "unit": "µM"},
      {"measurement": "inhibition of NMT activity", "setting": "NMT1; purified recombinant NMT1", "value": "inhibits NMT in vitro"},
      {"measurement": "IC50", "setting": "NMT2; NMT2, in vitro", "value": "~5", "unit": "µM"},
      {"measurement": "inhibition of NMT activity", "setting": "NMT2; purified recombinant NMT2", "value": "inhibits NMT in vitro"},
      {"measurement": "increase of survival by NMT2 transfection vs control cells transfected with empty plasmid vector", "setting": "[6]", "value": 2.5, "unit": "fold"},
      {"measurement": "sensitivity (residual viability)", "setting": "[7]", "value": "more sensitive"},
      {"measurement": "sensitivity (residual viability)", "setting": "[8]", "value": "more sensitive"}
    ]}
  ]
}
